Assay results as given in patent US11351218B2, “Composition for preventing or treating glioblastoma comprising Platycodon grandiflorum A. De Candolle, Scutellaria baicalensis, Phellodendron amurense Ruprecht or Rubus coreanus” (University-Industry Cooperation Group of Kyung Hee …, priority 2019, dated 2022).
Residues, ends and D or L forms follow the SMILES beside them. *: point of attachment. Cbz = O=C(OCc1ccccc1)*; CH2F = FC*

Tests used:
cell-surface LDLR [1] = test: Cell surface LDLR analysis by flow cytometry, normal astrocytes; assay type: cell-based, human; conditions: PD 10 μM or U18666a 1 μM, 24 hours
Description: (§1) FIGS. 16A to 16D show the results that PD increases the expression of LDLR on cell surfaces in GBM cells. […] GAPDH was used as a loading control. […] GAPDH was used as a loading control.
(§2) Cells treated as described in FIG. 16 were separated from plates and resuspended in PBS. After washing with 1% BSA in PBS, the cells were incubated with a primary antibody against human LDLR (Abcam) for 30 minutes. Then, the cells were washed before incubation with an Alexa-Fluor 488-conjugated secondary antibody (Invitrogen) for 30 minutes. The stained cells were washed and resuspended. Fluorescence was analyzed by a FACScalibur flow cytometer (Becton Dickinson, San Jose, Calif., USA) using CellQuest™ software.
(§3) Brain is the most cholesterol-rich organ of the body, containing about 20% of total body cholesterol. […] As can be confirmed in FIG. 16A, in consistent with these reports, the LDLR protein level was markedly elevated in U87MG and U373MG cells relative to normal human astrocytes. […] Then, the cell surface expression of LDLR was confirmed by flow cytometry.

U87MG and U373MG cells [2] = test: Cholesterol cell-based detection assay (filipin III staining) in GBM cells; parameters: species or system human
Description: (§4) FIGS. 15A and 15B show the results that PD promotes accumulation of cholesterol in lysosomes. Cells were treated with DMSO, PD (10 μM), or U18666a (1 μM) for 24 hours. […] Total cholesterol levels are expressed in cholesterol (μg) per protein (mg) of cell lysate and are shown as means±SD from two independent experiments.
Cells grown on coverslips were treated with the materials. Then, the cells were fixed with 4% PFA at room temperature for 10 minutes. The solution of Filipin III (Cayman) was added for staining of […] cholesterol and the samples were incubated in a dark room for 30 minutes. The images were examined under a Zeiss laser confocal microscope.
The present inventors concluded that PD inhibits the maturation of autophagosome into autolysosomes by inhibiting lysosomal degradation and an autophagosome-lysosome fusion in GBM cells. […] To examine whether the defect in the autophagosome-lysosome fusion by PD is due to altered intracellular cholesterol levels, the PD-treated GBM cells were stained with filipin-III, which is a fluorescent dye that binds to cholesterol. […] As can be confirmed in FIG. 14A, this filipin-III staining pattern is very similar to that found in GBM cells treated with U18666A, implying that PD blocks cholesterol release from lysosome and accumulates cholesterol in lysosomes.

LDLR = test: Immunoblot of LDLR in U87MG, U373MG cells and normal astrocytes; assay type: cell-based, human; conditions: PD 5 μM and 10 μM or U18666a 1 μM, 24 hours; U87MG, U373MG and normal astrocytes
Description: as §1
(§5) Cells treated with the concentrations and materials described in FIGS. 1-3B, 7, 8, 10, 13, 16, 18, and 20 were lysed in buffer containing 20 mM Tris-HCl (pH 7.5), 150 mM NaCl, 1 mM EDTA, 1 mM Na2EDTA, 1 mM EGTA, 1% NP-40, 1% sodium deoxycholate, 1 mM Na3VO4, 1 mM MPI, 1 mM PMSF, and PI cocktails for 15 to 20 minutes on ice. Cell lysates were separated by SDS-PAGE and transferred to nitrocellulose membranes. Immunodetection was performed with the following primary antibodies: rabbit anti-LC3B, rabbit anti-cathepsin B, rabbit-anti GAPDH (Cell Signaling Technology, Danvers, Mass.), mouse anti-SQSTM1/p62, and goat anti-cathepsin D (Santa CruzKPL, Gaithersburg, Md., USA) were incubated at room temperature for 1 hour. The protein bands were detected with ECL western Blotting Substrate (Thermo Fisher Scientific, Waltham, Mass., USA).
as §3

U87MG and U373MG cells [3] = test: BODIPY FL LDL uptake assay, GBM cells; assay type: cell-based, human; conditions: U18 1 μM 24 hours, BODIPY FL LDL 1 hour
Description: (§6) Cells were treated with DMSO, PD (10 μM), or U18 (1 μM) for 24 hours and subsequently loaded with BODIPY™ FL LDL. BODIPY-LDL uptake was visualized by confocal microscopy. Nuclei were stained with DAPI (blue). Quantification shown on the right graph represents a relative fold change from three independent experiments±SD.
(§7) Cells seeded on coverslips were treated with the materials and then the culture medium was replaced with BODIPY™ FL LDL (Thermo Fisher Scientific) at a working concentration of 5 μg/mL in a medium. The cells were additionally incubated at 37° C. for 1 hour. The degree of LDL uptake was measured using a Zeiss laser confocal microscope.
(§8) Based on the previous study results of the present inventors that PD increases cell surface LDLR expression and accumulate cholesterol within lysosomes, whether PD can increase the uptake of exogenous LDL was examined Cells pretreated with PD or U18666A were incubated with BODIPY FL-labeled LDL particles for 1 hour and the LDL uptake was observed by a confocal microscope. Upon analysis of these cells, it was observed that PD caused about a 6-fold increase in LDL uptake and it was a level similar to that detected in the U18666A-treated cells.

normal astrocytes = test: BODIPY FL LDL uptake assay, normal astrocytes; assay type: cell-based, human; conditions: PD 10 μM or U18 1 μM, 24 hours
Description: as §6, §7, §8

cell-surface LDLR [4] = test: Cell surface LDLR analysis by flow cytometry, GBM cells; assay type: cell-based, human; conditions: PD 10 μM or U18666a 1 μM, 24 hours
Description: as §1, §2, §3

U87MG and U373MG cells [5] = test: Cholesterol measurement (total cholesterol assay kit) in GBM cells; assay type: cell-based, human; conditions: PD 10 μM or U18666a 1 μM, 24 hours
Description: as §4
Cells treated as described above were processed using a total cholesterol assay kit (STA384, Cell Biolabs) according to the manufacterer's instructions. Cholesterol esters and free cholesterol were quantified by homogenizing 10^6 cells extracted from a 200 μL mixture of chloroform: isopropanol: NP-40 (7:11:0.1). After centrifugation of the extract at 15,000× g for 10 minutes, the organic phase was collected and evaporated at 50° C. The extract was resuspended in 200 μL of a 1× cholesterol assay diluent prior to analysis. The colorimetric signal was analyzed using an ELISA reader (Versa Max, Molecular Devices, Sunnyvale, Calif., USA) at 540 nm. Cellular cholesterol results were reported as μg of cholesterol per mg of cell protein.

Ax1 = test: Western blot of Ax1 expression after natural compounds, U87MG and U373MG cells; assay type: cell-based, human; conditions: varying concentrations, 48 hours
Description: Cells were washed with PBS and dissolved using a RIPA buffer (150 mM NaCl, 1% NP-40, 0.5% DOC, 0.1% SDS, 50 mM Tris (pH 8.0), 1 mM EDTA, 1 mM PMSF, 1 mM NaF, 1 mM Na3PO4, 1 μL aprotinin, leupeptin, and pepstatin), and proteins were isolated by centrifugation at 3,000× g for 20 minutes. An equal amount (20 μg) of each of the proteins was separated by 10% sodium dodecyl sulfate-polyacrylamide gel electrophoresis (SDS-PAGE) and the proteins separated using the Trans-blot unit were transferred to a nitrocellulose (NC) membrane. The membrane to which proteins were transferred was blocked with 5% non-fat dry milk (Tris buffered saline (TBS-T) containing 0.1% Tween-20) at room temperature for 1 hour, and primary antibodies, which were diluted at a 1:1,000 concentration, were allowed to react the proteins at 4° C. for 16 hours. After washing with PBS, the resultant was allowed to react with secondary antibodies, which were diluted at a 1:5,000 concentration, at room temperature for 1 hour. A Pierce ECL Western Blotting Substrate, which also underwent a washing process, was coated onto the membrane and allowed to react in a dark room with a film, and thereby, specific protein bands were confirmed. […]

U87MG and U373MG cells [6] = test: WST1 cell viability assay, GBM cells; assay type: cell-based, human
Description: FIGS. 6A and 6B show the results that PD induces a decrease in cell viability and vacuole formation. […] Data shown represent the means of quintuplicate measurements which were repeated three times. The results are presented as a percentage of control (means±SD).
Cell cytotoxicity was assessed by WST1 assay. U87 and U373 cells were each seeded in a 96-well plate (5×10^3 cells/well) and treated with different concentrations of platycodin D (PD). Then, cells were incubated with a WST1 reagent (Dogen, Seoul, Korea) for 2 hours before reading the plate. Absorbance was measured at 450 nm using an ELISA reader (Versa Max, Molecular Devices, Sunnyvale, Calif., USA).

U87MG and U373MG cells [7] = test: Clonogenic assay, GBM cells; assay type: cell-based, human; conditions: co-treatment MβCD 100 μM with PD 10 μM or 20 μM, 7 days
Description: FIGS. 19A and 19B show the results that MβCD restores PD-mediated decrease in cell viability. […] Data shown represent the means of quintuplicate measurements which were repeated three times. The results are presented as a percentage of control (means±SD).
Approximately 2×10^3 cells were seeded into each 6-well plate and then treated as described in FIG. 19. After 7 days, the cells were washed with PBS and stained with 0.5% crystal violet.
Furthermore, as can be confirmed in FIG. 19B, a colony formation assay was performed to confirm the effects of MβCD on PD-mediated GBM cell death.

LC3B and SQSTM1/p62 = test: Immunoblot of LC3B and SQSTM1/p62 in GBM cells (U87MG and U373MG); assay type: cell-based, human; conditions: combined treatment MβCD 100 μM and PD 10 μM
Description: FIGS. 2A and 2B show the results that an extract of Platycodon grandiflorum (PG) increases the levels of LC3-II and p62. […] GAPDH was used as a loading control.
FIGS. 3A to 3C show the results that PD inhibits autophagic flux in GBM cells. […] The expression of LC3B and SQSTM1 was confirmed by immunoblot analysis. […] GAPDH was used as a loading control.
The human glioma cell lines, U87MG and U373MG, were cultured respectively in RPMI-1640 (Welgene) and DMEM (Welgene, Daegu, Korea) supplemented with 10% fetal bovine serum (FBS, JR Scientific) and 1% antibiotics (Ab, Welgene). All cultures were maintained at 37° C. in a humidified incubator containing 5% CO2.
as §5

cathepsin B and D = test: Immunoblot of cathepsin B and D processing in GBM cells; assay type: cell-based, human; conditions: addition of MβCD 100 μM to PD 10 μM-treated cells
Description: Immunoblot analyses for the processing of endogenous CTSB and CTSD are shown (upper, immature form/lower, mature form of CTSB and CTSD). GAPDH was used as a loading control.
as §5
To confirm whether PD functions as an autophagy inhibitor, the effects of PD on lysosomal proteases, cathepsin B and D, were examined Autophagy is a lysosome-mediated and self-degradative process that requires lysosomal cysteine proteases known as cathepsins. Since pro-cathepsins are cleaved into a mature form in lysosomes, the 33 kD active cleaved form of cathepsins has been commonly used as a marker for lysosomal activity. As can be confirmed in FIG. 13, while the mature forms of cathepsin B and D proteins were decreased, immature forms of those protein were increased after PD treatment in U87MG and U373MG cells, implying that PD suppresses a lysosomal function by downregulating the lysosomal proteolytic activity.

U87MG and U373MG cells [8] = test: LysoTracker assay with GFP-LC3B (autophagosome-lysosome fusion) in GBM cells; assay type: cell-based, human; conditions: co-treatment MβCD 100 μM and PD 10 μM, 48 hours
From the text: […] Then, cells were stained with LysoTracker (red) and DAPI (blue). The merged images show an overlap between GFP-LC3 and LysoTracker (yellow). The panels on the right are higher-magnification images of the boxed regions.
Cultured cells seeded in plates with microscope coverslips were transfected with a pGFP-LC3B plasmid using Lipofectamine 3000 (Thermo Fisher Scientific) according to the manufacturer's instructions. After the transfection, the cells were fixed with 4% paraformaldehyde (PFA) in phosphate-buffered saline (PBS) at room temperature for 10 minutes. The images were examined under a laser confocal microscope (Zeiss, Oberkochen, Baden-Wurttemberg, Germany).
To stain acidic compartments, 50 nM LysoTrackerRedDND-99 (Thermo Fisher Scientific) was added to a medium at 37° C. with 5% CO2 for 30 minutes prior to fixation. The nuclei were labeled with 4,6-diamidino-2-phenylindole (DAPI, Sigma). The slides were finally mounted using a Faramount mounting medium (Dako, Glostrup, Denmark). The images were examined under a Zeiss laser confocal microscope.
Experimental Result 11. PD Blocks Fusion of Autophagosomes with Lysosomes. Since p62 was accumulated in autophagosomes by PD treatment, it was speculated that PD may cause the lysosomal dysfunction like bafilomycin A1, which inhibits vacuolar H^+-ATPase (V-ATPase)-dependent lysosomal acidification and blocks autophagosome-lysosome fusion. Thus, the PD-treated cells with LysoTracker Red, which is a marker for acidic compartment including lysosomes was stained to examine the colocalization of GFP-LC3B.

CCN(CC)CCO[C@H]1CC[C@@]2(C)C(=CC[C@@H]3[C@@H]2CC[C@]2(C)C(=O)CC[C@@H]32)C1 [U18666A, reference compound]
changes in peak shift (cell surface LDLR) (cell-surface LDLR [1]): very negligible
cellular cholesterol distribution (filipin-III staining) (U87MG and U373MG cells [2]; PD 10 μM or U18666a 1 μM, 24 hours): very similar
LDLR expression (LDLR): increased the LDLR expression
LDL uptake level compared with PD (U87MG and U373MG cells [3]): similar
LDL uptake (normal astrocytes): less effective
cell surface expression of LDLR (cell-surface LDLR [4]): shift of the FL-1 histogram peak toward right
free cholesterol levels (U87MG and U373MG cells [5]): significant increase

O=C(O)[C@H]1O[C@@H](Oc2cc3oc(-c4ccccc4)cc(=O)c3c(O)c2O)[C@H](O)[C@@H](O)[C@@H]1O [baicalin]
expression of Ax1 (Ax1): reduced the expression of Ax1

O=c1c(O)c(-c2ccc(O)c(O)c2)oc2cc(O)cc(O)c12 [quercetin]
expression of Ax1 (Ax1): reduced the expression of Ax1

COC(=O)C[C@H](NC(=O)[C@H](C)NC(=O)[C@@H](NC(=O)OCc1ccccc1)C(C)C)C(=O)CF [z-VAD-fmk, reference compound] (Cbz-Val-Ala-Asp(OMe)-CH2F)
cell viability, co-treatment vs PD-alone (U87MG and U373MG cells [6]; z-VAD-fmk 50 μM with PD 10 μM and 20 μM, 48 hours): little impact

methyl β-cyclodextrin [MβCD, reference compound]
colony-forming ability (U87MG and U373MG cells [7]): almost completely recovered
accumulated cholesterol in lysosomes (U87MG and U373MG cells [2]; PD 10 μM 24 hours, then MβCD 100 μM 48 hours): successfully depleted
changes in LC3-II and p62 levels increased by PD alone (LC3B and SQSTM1/p62): almost completely restored
activity of cathepsin B (cathepsin B and D): recovered activity
viability of GBM cells (U87MG and U373MG cells [6]; combined treatment MβCD 100 μM and PD 10 μM, 72 hours): significantly restored the viability
colocalization of GFP-LC3B puncta with LysoTracker Red fluorescence (U87MG and U373MG cells [8]): remarkable increase
